{
  "source": "patent US20070191315A1",
  "about": "“Method for administering ibandronate” (priority 2006, published 2007)",
  "system": "metastatic bone pain",
  "assay": "Multicenter, randomized, active-controlled, double-blind trial of pain (BPI worst/average pain scales)",
  "format": "in vivo",
  "conditions": "patients; ibandronic acid 6 mg IV over 15 min on Days 1, 2 and 3, then 50 mg orally daily from Day 22; 24 weeks; compared to placebo treatment",
  "experimental": "A multicenter, randomized, active-controlled, double-blind, parallel groups trial is conducted. Patients are centrally randomized via an interactive voice response system (IVRS) to treatment either with ibandronic acid or zoledronic acid. Study treatment begins within 96 hours of randomization. Treatment continues for 24 weeks. Patients record their pain on the WORST PAIN and the AVERAGE PAIN scales of the BPI, as well as daily analgesic use, on a nightly basis. Patients record the degree to which their pain interferes with normal functioning and any opioid side-effects weekly. WHO Performance Status, quality of life based on the EORTC QLQ-C30 instrument and quality of life based on the FACT-BP, an instrument specifically designed to measure quality of life in patients with bone pain are recorded at Day 8 and Weeks 6, 12, 18 and 24 of the trial. Patients have skeletal surveys performed at Baseline and at Weeks 12 and 24 as part of the monitoring of SREs. Patients randomized to the ibandronic acid arm receive ibandronic acid 6 mg intravenously over 15 minutes on Days 1, 2 and 3 of the trial, followed by ibandronic acid 50 mg orally daily beginning on Day 22 of the study. Patients also receive a placebo infusion every 3-4 weeks, depending on the underlying chemotherapy regimens patients may be receiving. Patients who are not receiving chemotherapy receive placebo infusions every 3 weeks. […]",
  "data": [
    {"smiles": "CCCCCN(C)CCC(O)(P(=O)(O)O)P(=O)(O)O", "note": "[ibandronate, 3-(N-methyl-N-pentyl)amino-1-hydroxypropane-1,1-diphosphonic acid]", "values": [
      {"measurement": "pain scores", "value": "significantly lower pain scores"}
    ]}
  ]
}
